Measurements published in US9062124B2, “GIP-based mixed agonists for treatment of metabolic disorders and obesity” (priority 2008, dated 2015).
Bridges are numbered along the chain shown (N, C = ends). Where no end group is shown, it is not given here. [ ]: non-standard residue; d: D form. PEG 40 kDa = PEG (40 kDa) covalently attached to Cys; Aib = CC(C)(N)C(=O)O

Legend:
[1] = Glucose tolerance test (1-hour and 24-hour GTT) in DIO mice; type: in vivo; conditions: Example 26; for potency in GTT compared with GLP-1 agonist control peptide: 1 or 3 nmol/kg/week versus control at 10 nmol/kg/week; for blood glucose levels in 1-hour and 24-hour GTT: DIO mice, intraperitoneal, 1, 3 or 10 nmol/kg/week, versus vehicle control
Method: A 1-hour glucose tolerance test (GTT) was performed on the mice by intraperitoneally injecting a 25% (w/v) glucose saline solution into the mice one hour after injection with one of the peptides or vehicle control. The glucose saline solution was administered to the mice at a dose of 1.5 g per kg of mouse body weight. Blood glucose levels were measured at the time of injection of peptide or vehicle control (−60 min), at the time of glucose saline solution injection (0 min), or at 15, 30, 60, or 120 min post injection with the glucose saline solution.
A 24-hour GTT also was performed on the mice in the same manner as the 1-hour GTT, except that the glucose saline solution was administered to the mice 24 hours after injection with the peptide or vehicle control. The results of the 24-hour GTT are showri in FIG. 8.

[2] = tested on: glucagon receptor, GLP-1 receptor or GIP receptor; assay: Agonist profile across receptors assigned from the cAMP reporter assay data; type: cell-based; conditions: assigned from the in vitro EC50 data of Tables 1-4
[3] = Body weight of mice after peptide injection; conditions: for % change in body weight: Example 26, intraperitoneal, 3 or 10 nmol/kg/week, up to Day 7; for total change in body weight: subcutaneous, Day 7
[4] = Blood glucose levels of mice after peptide injection; conditions: subcutaneous; for blood glucose levels: Example 28, DIO mice, 10 nmol/kg, Day 0 versus Day 7

mt-178: pegylated, cyclic, lactam-containing GIP-active glucagon analog; GLP-1/GIP co-agonist peptide (Y[Aib]EGTFTSDYSIYLDEQAAKEFVNWLLAGGPSSGAPPPSC(PEG 40 kDa)-NH2; lactam 16-20)
potency in GTT compared with GLP-1 agonist control peptide [1]: greater than that of the GLP-1 agonist control peptide
blood glucose levels in 1-hour and 24-hour GTT [1]: exhibited decreased levels of blood glucose
receptor activity profile (glucagon / GLP-1 / GIP agonism) [2]: exemplary GLP-1/GIP co-agonist peptides
reduction of body weight ([3]; Example 22, DIO mice, subcutaneous QW, 70 or 210 nmol/kg/week): a little more effective at reducing body weight in the mice as Chimera 2 AIB2, but not as effective as Chimera 2 AIB2 lactam
% change in body weight ([3]; DIO mice): lost weight to the same or greater extent of mice injected with the GLP-agonist control peptide
total change in body weight ([3]; Example 28, DIO mice, 10 nmol/kg): greatest loss of body weight 7 days after injection
blood glucose levels [4]: decreased

mt-274: pegylated, linear peptide lacking a lactam, Glu at position 3, PEG on C-terminal Cys at position 40 (Y[Aib]EGTFTSDYSIYLDKQAA[Aib]EFVNWLLAGGPSSGAPPPSC(PEG 40 kDa)-NH2)
potency in GTT compared with GLP-1 agonist control peptide [1]: appeared to have the highest potency
blood glucose levels in 1-hour and 24-hour GTT [1]: exhibited decreased levels of blood glucose
% change in body weight ([3]; DIO mice): lost weight to the same or greater extent of mice injected with the GLP-agonist control peptide
total change in body weight ([3]; Example 27, mice, 10 or 35 nmol/kg/week): most dramatic changes in body weight
total change in blood glucose ([4]; Example 27, mice, 10 or 35 nmol/kg/week, Day 7): most dramatic changes in blood glucose
blood glucose levels [4]: decreased
